Measured values reported in PubChem BioAssay AID1918955 (Molecular Pharmacology Branch, DTP, NCI, 2023).

System: NCI/ADR-RES complex spheroid viability
Test: Anticancer human tumor NCI/ADR-RES cell line growth inhibition;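 also: spheroids exposed to compounds for 7 days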;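 as to viability, T/C: 100% = DMSO vehicle treated spheroids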
Details: for IC50: curve of first compound; for viability, T/C: stronger effect = lower value
Excerpt: Multicellular complex tumor spheroid response to LSD1 Inhibitor Iadademstat in combination with a variety of drugs and investigational agents in selected tumor cell lines
The current study was undertaken to assess response to LSD1 inhibitors in combination with standard-of-care drugs and investigational agents in solid tumor complex spheroid models as well as in the K-562 leukemia. Complex spheroids include a stromal component modeled by human endothelial cells (HUVEC) and fibroblasts modeled by human mesenchymal stem cells (MSCs). The concentration ranges selected for each drug and investigational agent were based upon clinically achievable concentrations if the clinical Cmax of the agent was known.
Compounds. The drugs and investigational agents used in this study are listed on Table 1. All of the agents used, including staurosporine (NSC755774) and gemcitabine (NSC613327), were obtained from the Developmental Therapeutics Program, NCI. FDA-approved anticancer drugs are available from the NCI at http://dtp.nci.nih.gov/branches/dscb/oncology_drugset_explanation.html. Drugs and investigational agents were >95% pure by proton nuclear magnetic resonance (NMR) and liquid chromatography/mass spectrometry (LC/MS). Stock solutions were prepared at 400x in DMSO, stored at -70 degrees C, and diluted in fresh medium prior to their use. The final concentration of DMSO in cell culture wells never exceeded 0.25% (v/v). The FDA-approved anticancer drug set is available from the Developmental Therapeutics Program at https://dtp.cancer.gov/organization/dscb/obtaining/available_plates.htm. All drugs and investigational agents were tested over a range starting from a high concentration at or near the clinical Cmax and decreasing in half-log increments. If the clinical Cmax for an agent had not been determined, the highest concentration tested was 10 microM.
Cell Lines. The patient-derived cancer cell (PDC) lines: 292921-168-R-J2-PDC, K24384-001-R-PDC, and 521955-158-R2-J5-PDC pancreatic carcinomas, 556581-035-R-J1 ovarian carcinoma, 324938-238-R-J1-PDC, 855422-203-R-J1-PDC and 883617-216-R-J1-PDC urothelial bladder carcinomas, 743489-274-T-PDC renal cell carcinoma, 138582-R-J1 Merkel cell tumor, K60290-347-R-J1 and K57222-313-R-J1-PDC glioblastomas, 653999-131-R-J2-PDC, LG0703-F948-PDC, and 349418-098-R-PDC non-small cell lung carcinomas, 885512-296-R-J2-PDC, 171881-019-R-J1-PDC breast carcinomas and 186277-243-T-J2-PDC and 233499-124-R-J2-PDC colon carcinomas were obtained from the NCI Patient-Derived Models Repository (PDMR, https://pdmr.cancer.gov). The established cell lines NCI/ADR-RES (RRID:CVCL_14520 and OVCAR-5 (RRID:CVCL_1628) ovarian carcinomas, 786-O (RRID:CVCL_1051) and A498 (RRID:CVCL_A498) renal cell carcinoma, NCI-H211 (ATCC, cat. CRL-5824; RRID:CVCL_1529), NCI-H196 (ATCC, cat. CRL-5823, RRID:CVCL_1509), SW 1271 (ATCC, cat. CRL-2177, RRID:CVCL_1716) and NCI-H1876 (ATCC, cat. CRL-5902, RRID:CVCL_1503) small cell lung carcinomas, MDA-MB-231 (RRID:CVCL_0062) and MDA-MB-468 (RRID:CVCL_0419)breast carcinomas (10-12). Pooled donor human umbilical vein endothelial cells (HUVEC, Lonza, cat. CC-2519) and human mesenchymal stem cells (hMSC, Lonza, cat. PT-2501) were purchased from Lonza (Walkersville, MD).
Cell Culture. All cells were maintained in an incubator at 37 degrees C and 5% CO2 with 95% humidity. The PDC lines were cultured according to standard operating procedures established by the NCI PDMR (https://pdmr.cancer.gov). Briefly all PDCs were thawed and cultured in Matrigel-coated flasks prepared with a working solution of 1X Ham's F-12 nutrient mix, without supplementation (Invitrogen, Waltham, MA, cat. 11765054), 100 U/mL penicillin-streptomycin (Invitrogen, cat. 15140122), and 2.5% Matrigel (Corning Inc., Corning, NY, cat. 354248) for the first three passages. […]

[1] = second compound 0.1 µM, first compound 0.00316 µM
[2] = second compound 0.1 µM, first compound 0.01 µM
[3] = second compound 0.1 µM, first compound 0.0316 µM
[4] = second compound 0.1 µM, first compound 0.1 µM
[5] = second compound 0.316 µM, first compound 0.00316 µM
[6] = second compound 0.316 µM, first compound 0.01 µM
[7] = second compound 0.316 µM, first compound 0.0316 µM
[8] = second compound 0.316 µM, first compound 0.1 µM
[9] = second compound 1 µM, first compound 0.00316 µM
[10] = second compound 1 µM, first compound 0.01 µM
[11] = second compound 1 µM, first compound 0.0316 µM
[12] = second compound 1 µM, first compound 0.1 µM
[13] = second compound 3.16 µM, first compound 0.00316 µM
[14] = second compound 3.16 µM, first compound 0.01 µM
[15] = second compound 3.16 µM, first compound 0.0316 µM
[16] = second compound 3.16 µM, first compound 0.1 µM
[17] = second compound 10 µM, first compound 0.00316 µM
[18] = second compound 10 µM, first compound 0.01 µM
[19] = second compound 10 µM, first compound 0.0316 µM
[20] = second compound 10 µM, first compound 0.1 µM

CC[C@@]1(O)C(=O)OCc2c1cc1n(c2=O)Cc2cc3c(CN(C)C)c(O)ccc3nc2-1 + NC1CC1c1ccc(-c2cccc(O)c2)cc1
IC50 (second compound 0.1 µM): 8.38 nM
IC50 (second compound 0.316 µM): 8.87 nM
IC50 (second compound 1 µM): 10.5 nM
IC50 (second compound 3.16 µM): 13.3 nM
IC50 (second compound 10 µM): 13.2 nM
viability, T/C (second compound 0.1 µM, first compound 0.000316 µM): 110%
viability, T/C (second compound 0.1 µM, first compound 0.001 µM): 101%
viability, T/C [1]: 84.9%
viability, T/C [2]: 43.3%
viability, T/C [3]: 13.4%
viability, T/C [4]: 2.49%
viability, T/C (second compound 0.316 µM, first compound 0.000316 µM): 111%
viability, T/C (second compound 0.316 µM, first compound 0.001 µM): 103%
viability, T/C [5]: 86.2%
viability, T/C [6]: 45.2%
viability, T/C [7]: 14.9%
viability, T/C [8]: 2.48%
viability, T/C (second compound 1 µM, first compound 0.000316 µM): 101%
viability, T/C (second compound 1 µM, first compound 0.001 µM): 98.9%
viability, T/C [9]: 83.5%
viability, T/C [10]: 52.2%
viability, T/C [11]: 16.3%
viability, T/C [12]: 2.84%
viability, T/C (second compound 3.16 µM, first compound 0.000316 µM): 97%
viability, T/C (second compound 3.16 µM, first compound 0.001 µM): 94%
viability, T/C [13]: 81.2%
viability, T/C [14]: 60.1%
viability, T/C [15]: 23.7%
viability, T/C [16]: 4.48%
viability, T/C (second compound 10 µM, first compound 0.000316 µM): 95.1%
viability, T/C (second compound 10 µM, first compound 0.001 µM): 82.3%
viability, T/C [17]: 74.2%
viability, T/C [18]: 57.1%
viability, T/C [19]: 31.4%
viability, T/C [20]: 9.59%

COc1cc(C2c3cc4c(cc3C(OC3OC5COC(C)OC5C(O)C3O)C3COC(=O)C23)OCO4)cc(OC)c1O (stereo not given) + NC1CC1c1ccc(-c2cccc(O)c2)cc1
IC50 (second compound 0.1 µM): > 3000 nM
IC50 (second compound 0.316 µM): > 3000 nM
IC50 (second compound 1 µM): > 3000 nM
IC50 (second compound 3.16 µM): > 3000 nM
IC50 (second compound 10 µM): > 3000 nM
viability, T/C (second compound 0.1 µM, first compound 0.00949 µM): 104%
viability, T/C (second compound 0.1 µM, first compound 0.03 µM): 112%
viability, T/C (second compound 0.1 µM, first compound 0.0949 µM): 106%
viability, T/C (second compound 0.1 µM, first compound 0.3 µM): 101%
viability, T/C (second compound 0.1 µM, first compound 0.949 µM): 100%
viability, T/C (second compound 0.1 µM, first compound 3 µM): 90.4%
viability, T/C (second compound 0.316 µM, first compound 0.00949 µM): 113%
viability, T/C (second compound 0.316 µM, first compound 0.03 µM): 104%
viability, T/C (second compound 0.316 µM, first compound 0.0949 µM): 106%
viability, T/C (second compound 0.316 µM, first compound 0.3 µM): 104%
viability, T/C (second compound 0.316 µM, first compound 0.949 µM): 103%
viability, T/C (second compound 0.316 µM, first compound 3 µM): 92.6%
viability, T/C (second compound 1 µM, first compound 0.00949 µM): 102%
viability, T/C (second compound 1 µM, first compound 0.03 µM): 101%
viability, T/C (second compound 1 µM, first compound 0.0949 µM): 99.6%
viability, T/C (second compound 1 µM, first compound 0.3 µM): 96.5%
viability, T/C (second compound 1 µM, first compound 0.949 µM): 92.7%
viability, T/C (second compound 1 µM, first compound 3 µM): 92.4%
viability, T/C (second compound 3.16 µM, first compound 0.00949 µM): 98.5%
viability, T/C (second compound 3.16 µM, first compound 0.03 µM): 100%
viability, T/C (second compound 3.16 µM, first compound 0.0949 µM): 95.2%
viability, T/C (second compound 3.16 µM, first compound 0.3 µM): 95.7%
viability, T/C (second compound 3.16 µM, first compound 0.949 µM): 94.2%
viability, T/C (second compound 3.16 µM, first compound 3 µM): 84.9%
viability, T/C (second compound 10 µM, first compound 0.00949 µM): 84.6%
viability, T/C (second compound 10 µM, first compound 0.03 µM): 81%
viability, T/C (second compound 10 µM, first compound 0.0949 µM): 79.3%
viability, T/C (second compound 10 µM, first compound 0.3 µM): 80.2%
viability, T/C (second compound 10 µM, first compound 0.949 µM): 78.6%
viability, T/C (second compound 10 µM, first compound 3 µM): 71.1%

Nc1ncn(C2CC(O)C(CO)O2)c(=O)n1 (stereo not given) + NC1CC1c1ccc(-c2cccc(O)c2)cc1
IC50 (second compound 0.1 µM): 49.3 nM
IC50 (second compound 0.316 µM): 49.1 nM
IC50 (second compound 1 µM): 38.4 nM
IC50 (second compound 3.16 µM): 46 nM
IC50 (second compound 10 µM): 25.4 nM
viability, T/C [1]: 90.5%
viability, T/C [2]: 79.4%
viability, T/C [3]: 61.5%
viability, T/C [4]: 32.8%
viability, T/C (second compound 0.1 µM, first compound 0.316 µM): 19.9%
viability, T/C (second compound 0.1 µM, first compound 1 µM): 13.6%
viability, T/C [5]: 93.3%
viability, T/C [6]: 83%
viability, T/C [7]: 62%
viability, T/C [8]: 31.3%
viability, T/C (second compound 0.316 µM, first compound 0.316 µM): 17.8%
viability, T/C (second compound 0.316 µM, first compound 1 µM): 12.5%
viability, T/C [9]: 88.5%
viability, T/C [10]: 77.5%
viability, T/C [11]: 53.4%
viability, T/C [12]: 30.4%
viability, T/C (second compound 1 µM, first compound 0.316 µM): 15.8%
viability, T/C (second compound 1 µM, first compound 1 µM): 10.8%
viability, T/C [13]: 94.6%
viability, T/C [14]: 78.3%
viability, T/C [15]: 61%
viability, T/C [16]: 32%
viability, T/C (second compound 3.16 µM, first compound 0.316 µM): 15%
viability, T/C (second compound 3.16 µM, first compound 1 µM): 12.4%
viability, T/C [17]: 73.5%
viability, T/C [18]: 63.7%
viability, T/C [19]: 45.5%
viability, T/C [20]: 32.2%
viability, T/C (second compound 10 µM, first compound 0.316 µM): 16.1%
viability, T/C (second compound 10 µM, first compound 1 µM): 11.8%
